{"source": "patent US6930113B2", "about": "“Nitrosated and nitrosylated phosphodiesterase inhibitors, compositions and methods of use” (Nitromed, Inc., priority 1996, dated 2005)", "test_system": "Human corpus cavernosum tissue", "test": "In vitro comparative relaxation responses (isometric tension of tissue strips in organ chambers)", "assay_type": "cell-based", "conditions": "doses of 10 μM and 30 μM; tissue contracted with phenylephrine 7×10^−7 M; compared with equimolar dipyridamole; FIG. 58", "text": "Human corpus cavernosum tissue biopsies were obtained at the time of penile prosthesis implantation from impotent men. The tissue was maintained in a chilled Krebs-bicarbonate solution prior to assay. The tissue was cut into strips of 0.3×0.3×1 cm and suspended in organ chambers for isometric tension measurement. Tissues were incrementally stretched until optimal isometric tension for contraction was obtained. Once this was achieved, the tissues were contracted with phenylephrine (7×10^−7 M) and once a stable contraction was achieved, the tissues were exposed to either dipyridamole or the compound of Example 1 (10^−6 to 3×10^−5 M) by cumulative additions to the chamber. At the end of the experiment, papaverine (10^−4 M) was added to obtain maximal relaxation. […] Data were expressed as the percent loss in tone from the phenylephrine-induced contraction (0%=phenylephrine contraction; −100%=tone after administration of papaverine)."}
{"smiles": "CC(C)(CC(=O)OCCN(CCOC(=O)CC(C)(C)SN=O)c1nc(N2CCCCC2)c2nc(N(CCOC(=O)CC(C)(C)SN=O)CCOC(=O)CC(C)(C)SN=O)nc(N3CCCCC3)c2n1)SN=O", "note": "[Example 1, 2,6-bis(Diethyl(3-methyl-3-(nitrosothio)butyric acid ester)amino)-4,8-dipiperidinopyrimido-[5,4-d]-pyrimidine]", "values": [{"measurement": "relaxing the phenylephrine-induced contraction (percent loss in tone from the phenylephrine-induced contraction)", "value": "more efficacious"}]}
